One assay concerns medulloblastoma. The assay can be described thus: Medulloblastoma model: Ptch1/Hic1 subcutaneous allografts, tumor growth. Type of assay: in vivo, mouse. As for the experimental part: (§1) The activity of Compound 42 was also evaluated in a transgenic mouse model of medulloblastoma. Mice that are heterozygous for loss of function mutations in the tumor suppressors Patched1 (Ptch1) and Hypermethylated in Cancer (Hic1) develop spontaneous medulloblastoma. […] When passaged as subcutaneous allografts, these tumors grow aggressively and are Hedgehog pathway-dependent. This model was employed to evaluate the efficacy of orally administered Compound, and to correlate activity with drug exposure in plasma and tumors.
The approximate effective daily oral dose for 50% inhibition of tumor growth (ED50) is 4 mg/kg.

For the next assay, the system named is Gli-1. The assay can be described thus: Medulloblastoma model: Gli-1 mRNA expression in subcutaneously implanted tumors. The format is in vivo, mouse. Particulars: single oral dose, 8 hours post dose. As for the experimental part:
as §1

Assay [1] concerns Gli-responsive luciferase reporter. The assay can be described thus: Gli-responsive luciferase reporter transient transfection assay, Nalm-6. The format is cell-based. The settings on record: Nalm-6, 1 um; vehicle alone 8.42. From the text: (§2) The activity of Compound 42 (1 um) against three pre-B cell acute lymphocytic leukemia cell lines (REH, RS4-11, and Nalm-6) was studied, using a transient transfection assay in which a Gli-responsive luciferase reporter was transiently transfected into cells. Treatment with Compound 42 repressed luciferase activity compared to a vehicle treated control (Table 4).
(In a reporter assay the amount or activity of a reporter protein is the signal.)

Another assay has as its system L428. The assay can be described thus: Hodgkin's disease colony formation in methylcellulose, L428. The format is cell-based, human. Particulars: L428 (HD), 1.0 um, 72 hours. As for the experimental part:
The ability of Compound 42 to inhibit the in vitro growth of human cell lines derived from patients with non-Hodgkin's lymphoma (cell lines RL and Jeko-1) and Hodgkin's disease (cell line L428) was studied. Each of the cell lines was treated for 72 hours with Compound 42 (1.0 um) followed by plating in methylcellulose.

The next assay deals with murine Gli-1. The assay can be described thus: q-RT-PCR of HH pathway genes in harvested BXPC-3 tumors, murine Gli-1. The format is in vivo. Particulars: tumors harvested 4 hours post last dose, 40 mg/kg/day orally, vs vehicle group. As to the method:
The activity of Compound 42 was further tested in a human pancreatic model: BXPC-3 cells were implanted subcutaneously into the flanks of the right legs of mice. On day 42 post-tumor implant, the mice were randomized into two groups to receive either Vehicle (30% HPBCD) or Compound 42. Compound 42 administered orally at 40 mg/kg/day. […] At the end of the study, the tumors were harvested 4 hours post the last dose to evaluate an on target response by q-RT-PCR analysis of the HH pathway genes.

In the next assay the test system is U937. The assay can be described thus: AML colony formation in methylcellulose, U937. The format is cell-based, human. The settings on record: 1.0 um, 72 hours. As to the method:
(§3) The ability of Compound 42 to inhibit the in vitro growth of human cell lines derived from patients with acute myeloid leukemia (AML, cell line U937) and myelodysplastic syndrome (MDS, cell line KG1 and KG1a) was studied. Each of the cell lines was treated for 72 hours with Compound 42 (1.0 um) followed by plating in methylcellulose.

The subject of a further assay is RS4-11. The assay can be described thus: ALL colony formation in methylcellulose, RS4-11. Type of assay: cell-based. The settings on record: RS4-11, treated 72 hours. As to the method: The effect of Compound 42 on the growth of two of these cell lines, treated in vitro for 72 hours, was also studied. Following treatment, cells were washed and plated in methylcellulose.

Assay [2] deals with Gli-responsive luciferase reporter. The assay can be described thus: Gli-responsive luciferase reporter transient transfection assay, RS4-11. Type of assay: cell-based. The settings on record: RS4-11, 1 um; vehicle alone 12.97.
Excerpt: as §2

The subject of a further assay is LX22 cells. The assay can be described thus: Lung cancer model: LX22 primary SCLC xenograft. The format is in vivo, human. An excerpt:
To test the activity of Compound 42 in a human SCLC tumor model, LX22 cells were implanted subcutaneously into the flank of the right leg. LX22 is primary xenograft model of SCLC derived from chemo-naive patients, which has been maintained by mouse to mouse passaging. This tumor responds to etoposide/carboplatin chemotherapy in way that closely resembles a clinical setting. LX22 regresses during chemotherapy treatment, goes through a period of remission, and then begins to recur. In the LX22 model, Compound single agent activity and its ability to modulate the chemoresistant recurrence was tested. On day 32 post tumor implant, mice were randomized into three dosing groups to receive Vehicle (30% HBPCD), Compound, or the chemotherapy combination of etoposide and carboplatin (E/P). […] Etoposide was administered i.v at 12 mg/kg on days 34, 35, 36, and 48, while Carboplatin was administered i.v. At 60 mg/kg on days 34, 41, and 48, post tumor implant. On day 50, the E/P treated mice were further randomized to receive either Vehicle (30% HPBCD) or Compound follow up treatment.

The test system of another assay is Hedgehog pathway. The assay can be described thus: C3H10T1/2 osteoblast differentiation assay (alkaline phosphatase readout). Type of assay: cell-based, Mouse. The settings on record: Mus musculus, C3H 10T1/2; C3H10T1/2 cells, sonic Hedgehog 250 ng/ml, AP activity normalized to total protein; read-out: Differentiation Assay EC50 (approximate EC50 for inhibition). An excerpt:
Hedgehog pathway specific cancer cell killing effects may be ascertained using the following assay. C3H10T1/2 cells differentiate into osteoblasts when contacted with the sonic hedgehog peptide (Shh-N). Upon differentiation; these osteoblasts produce high levels of alkaline phosphatase (AP) which can be measured in an enzymatic assay (Nakamura et al., X BBRC (1997) 237:465). Compounds that block the differentiation of C3H10T1/2 into osteoblasts (a Shh dependent event) can therefore be identified by a reduction in AP production (van der Horst et al., Bone (2003) 33:899). The assay details are described below. The results approximate (EC50 for inhibition) of the differentiation assay is shown below in Table 1.
Mouse embryonic mesoderm fibroblasts C3H10T1/2 cells (obtained from ATCC) were cultured in Basal MEM Media (Gibco/Invitrogen) supplemented with 10% heat inactivated FBS (Hyclone), 50 units/ml penicillin and 50 ug/ml streptomycin (Gibco/Invitrogen) at 37° C. With 5% CO2 in air atmosphere.
C3H10T1/2 cells were plated in 96 wells with a density of 8×10^3 cells/well. Cells were grown to confluence (72 hrs). After sonic Hedgehog (250 ng/ml), and/or compound treatment, the cells were lysed in 110 μL of lysis buffer (50 mm Tris ph 7.4, 0.1% tritonx100), plates were sonicated and lysates spun through 0.2 μm PVDF plates (Corning). 40 μL of lysates was assayed for AP activity in alkaline buffer solution (Sigma) containing 1 mg/ml p-Nitrophenyl Phosphate. After incubating for 30 min at 37° C., the plates were read on an Envision plate reader at 405 nm. Total protein was quantified with a BCA protein assay kit from Pierce according to manufacturer's instructions. AP activity was normalized against total protein.

For assay [3], the system named is Gli-responsive luciferase reporter. The assay can be described thus: Gli-responsive luciferase reporter transient transfection assay, REH. The settings on record: 1 um, vehicle alone 6.73. The format is cell-based.
Excerpt: as §2

The next assay relates to KG1a. The assay can be described thus: MDS colony formation in methylcellulose, KG1a. Type of assay: cell-based, human. The settings on record: 1.0 um, 72 hours. As to the method:
as §3

The structures appear in SMILES notation.

One may read the ED50 as the dose at which the effect has come halfway, by size or by number of responders. What is called EC50 is the concentration needed to bring the measured effect to its halfway point.

In the case of `CC1=C2C[C@H]3[C@@H](CC[C@@H]4C[C@H](NS(C)(=O)=O)CC[C@@]43C)[C@@H]2CC[C@@]2(C1)O[C@@H]1C[C@H](C)CN[C@H]1[C@H]2C` [Compound 42], the ED50 in the assay with medulloblastoma (Mus musculus, daily oral dosing, approximate, read-out: effective daily oral dose for 50% inhibition of tumor growth (ED50)) was roughly 4 mg/kg. Moreover, the “inhibition of tumor growth” value in the assay with medulloblastoma (daily (QD) PO administration) is “dose dependent inhibition of tumor growth, with frank tumor regression seen at higher doses”. Further, the “long term survival following cessation of treatment” value with medulloblastoma (treated QD for 21 days) is greater than 60 days. Further, the “tumor re-growth following cessation of treatment” value in the assay with medulloblastoma (treated QD for 21 days) is recorded as “little to no tumor re-growth”. In the assay on Gli-1, the “HH pathway down-regulation measured by Gli-1 mRNA expression” value was “dose-dependent down-regulation”. Besides, the figures for the “Relative luc activity (+Compound)” value in assay [1], in assay [2] and in assay [3] were 1.44, 1.31 and 1.12, respectively. The “% colony formation with Compound 42 (relative to vehicle control)” value stood at 21.4% in the assay on L428, 43.4% in the assay on U937 and 34.6% in the assay on KG1a. For the same compound, the “murine Gli-1 mRNA levels (q-RT-PCR)” value in the assay on murine Gli-1 is “robust down-regulation”. For the same compound, the “colony formation with Compound (relative to vehicle control) - 1° plating” value with RS4-11 is on record as 71. In the assay on RS4-11 (replating of colonies), the “colony formation with Compound (relative to vehicle control) - 2° plating” value was found to be 11. Moreover, the “tumor recurrence after etoposide/carboplatin (E/P), treated vs vehicle group” value with LX22 cells (follow up treatment from day 50, 40 mg/kg/day orally, 35 consecutive doses, p=0.0101) is on record as “substantial delay in tumor recurrence”. In the assay on LX22 cells (orally 40 mg/kg/day, 16 consecutive doses), the “single agent activity, treated vs vehicle groups” value is recorded as “no measurable difference”. Moreover, in the assay with Hedgehog pathway, the EC50 is less than 20 nM.

These data come from patent publication US10314827B2, “Methods of use of cyclopamine analogs” (Infinity Pharmaceuticals, Inc., priority 2006, dated 2019).
